From US20140275280A1 (COYOTE PHARMACEUTICALS, INC., priority 2013, published 2014)

Columns and labels:
[1] = Pharmacological activity of GGA isomers (data of the examples, test not specified); conditions: at low concentrations
[2] = tested on: HSP70; experiment: Time course of HSP70 expression by ELISA in select tissues after oral CNS-102; type: in vivo, Sprague-Dawley rats; conditions: 12 mg/kg p.o
Method: CNS-102 at 12 mg/kg or PBS was administered orally to Sprague-Dawley rats and the time course of HSP70 protein expression in tissues, was measured by ELISA. HSP70 protein expression was determined for lung, testicle, spleen, liver, kidney, blood plasma, skin, peripheral blood monocytes, heart, eye, muscle, intestine, and stomach at each of three time points (8 h, 17 h, 24 h).

[3] = tested on: HSP70; experiment: Time course of HSP70 expression by western blot in cortex and hippocampus after oral CNS-102; type: in vivo; parameters: HSP70 expression (western blot), treatment average: scale not given here
Method: The time course of protein expression, as measured by western blot for HSP70, was determined in triplicate for hippocampus, and cortex tissue samples taken from each of 5 animals per group at each of four time points (24, 48, 72, and 96 h) after treatment with either PBS or 12 mg/kg CNS-102, administered orally. The average expression for each treatment group is calculated at each time point for each tissue using PROC MIXED in SAS and are tabulated, along with the difference (delta) between treatment averages and a p-value comparing the difference to zero, below.

[4] = tested on: 90% hepatectomy; experiment: Acute liver damage after 90% hepatectomy; type: in vivo, Male Wister rats
Method: Male Wister rats weighing 230-260 g are obtained. After an overnight fast, GGA or a GGA derivative (as an emulsion with 5% gum arabic and 0.004% α-tocophenol) or vehicle (5% gum arabic emulsion with 0.004% α-tocophenol) is intragastrically administrated into rats 4 h prior to the operation. After rats are anesthetized, 90% hepatectomy is performed. Briefly, the left, median, right-upper, and right-lower lobes are removed, leaving the caudate lobes, which represent 10-11% of the original liver mass. Liver specimens and blood samples are collected after laparotomy and exsanguinations under deep anesthesia immediately before (0) and 4,8, 12, and 24 h after the operation. Small pieces of liver tissue are immediately stored in an RNeasy stabilization kit (Qiagen, Hilden, Germany). Sera are immediately separated, and the activities of alanine (ALT) and aspartate (AST) aminotransferases are measured.

[5] = tested on: mild to moderate IBD; experiment: Treatment of inflammatory bowel disease (IBD) in subjects; type: in vivo; conditions: daily administration, 12 weeks
Method: (§1) A pharmaceutical composition comprising GGA or a GGA derivative as described herein is prepared. A subject is diagnosed with mild to moderate IBD. […] Subjects are treated for 12 weeks. Subjects keep daily diaries and record the number and nature of bowel movements. The effect of the treatments is assessed by grading clinical symptoms of fecal blood, mucus, and urgency. In addition, sigmoidoscopic assessment and biopsies are performed, and efficacy of treatment assessed, based on grading of sigmoidoscopic and degree of histological inflammation in rectal biopsy specimens. Safety is assessed based on spontaneous side effect reporting.

[6] = tested on: mild to moderate IBD following gastrectomy; experiment: Treatment of IBD in gastrectomized patients; type: in vivo; conditions: gastrectomized subjects, daily administration, 12 weeks
Method: as §1, with “IBD following gastrectomy.” for “IBD.”

[7] = tested on: DSS-induced colitis; experiment: Dextran sulfate sodium (DSS)-induced colitis; type: in vivo, BALB/c mice
Method: BALB/c mice are given 3% DSS solution orally for 7 days to induce colitis. The disease activity of colitis is assessed clinically every day, and histology in the colon is evaluated at 7 days post-DSS. The levels of myeloperoxidase (MPO) activity, tumor necrosis factor (TNF)-alpha and interferon (IFN)-gamma in the colon tissues are also examined. In addition, expression of HSPs 25, 40, 70 and 90 in the colon tissue is determined by Western blot analysis or ELISA. GGA or a GGA derivative is administered orally to mice when treatment of DSS is initiated.

[8] = tested on: heterotopically transplanted hearts; experiment: Heterotopically transplanted hearts; type: in vivo, rats; conditions: 24 h after transplantation
Method: A total of 20 donor rats are randomly divided into 2 groups. One of those receives an oral dose of GGA or a GGA derivative and one is a control group. […] The levels of HSP70 expression in donor hearts and the variation of myocardial enzymes in receptor blood or donor hearts are measured 24 h after transplantation. The donated hearts are also examined under a microscope for pathological changes. HSP70 expression is increase in the GGA-treated group.

[9] = tested on: IEC-18 cells; experiment: Protection of intestinal epithelial cells from NH2Cl-induced injury; type: cell-based, Rat; conditions: pretreatment
Method: Cell viability is assessed, and endogenous HSP70 levels are determined by enzyme-linked immunosorbent assay in IEC-18 cells.

[10] = tested on: human hepatoma (Bel-7402) cells; experiment: Acetaminophen-induced hepatotoxicity cytotoxicity assay with S9 mixture; type: cell-based; conditions: cytotoxic concentration of acetaminophen, vs control conditions
Method: In order to test the protective activity of GGA and GGA derivatives from acetaminophen-induced hepatotoxicity, a cytotoxicity assay is employed using human hepatoma (Bel-7402) cells in the presence of S9 mixture. Cell viability and mitochondrial permeability transition (MPT) is assessed in the presence or absence of GGA or GGA derivatives in combination with a cytotoxic concentration of acetaminophen.

[11] = tested on: HL-1 cardiomyocytes; experiment: In vitro ischemia/reperfusion cardiac disease model; type: cell-based, murine; conditions: HL-1 cells, nutrient-deficiency medium with 2.5 mM hydrogen peroxide
Method: Activity is assessed via apoptosis signaling, cell structure and energy-metabolism. The HL-1 cardiomyocytes (murine atrial tumor cell line) are maintained in monolayer culture with Claycomb-medium (Sigma, Germany), Heaving reached confluence and contractile activity, cells are maintained as subcultures. Induction of ischemia was carried out on vital cardiomyocytes at culture day four. The subconfluent, contractile HL-1 cardiomyocytes are placed in nutrient-deficiency medium containing 2.5 mM hydrogen peroxide solution in order to enhance the oxidative stress in HL-1 cells. In control cultures the medium exchange is carried out with standard supplemented Claycomb-medium. 8 h after ischemia induction samples are harvested and revitalization is induced in parallel by replacing nutrient-deficiency medium with fresh Claycomb-medium and incubating cells for another 16 hours. Cell proliferation analysis is done by flow cytometry. Apoptosis analysis is performed by terminal desoxynucleotidyl transferase-mediated dUTP nick end-labeling. Total number of cells are determined using 7-AAD nucleus staining. Additionally formaldehyde-fixed cells on glass coverslips are prepared for immuncytochemical staining.

[12] = tested on: myocardial ischemia and reperfusion; experiment: Myocardial ischemia and reperfusion injury; type: in vivo, male rats; conditions: once orally 24 h before 30 min ischemia, 4 h of reperfusion
Method: Lactate dehydrogenase (LDH), creatine kinase (CK), malondialdehyde (MDA), superoxide dismutase (SOD) activity and infarct size are measured.

[13] = single oral administration 4 h prior to operation, vs vehicle

With CC(=O)CC/C=C(\C)CC/C=C(\C)CC/C=C(\C)CCC=C(C)C (single isomer, unassigned) [trans-isomer of GGA, 5E, 9E, 13E geranylgeranyl acetone] the “pharmacological activity and dose-dependent relationship” value [1] was “pharmacologically active and shows a dose-dependent relationship”.
For CC(=O)CC/C=C(/C)CC/C=C(\C)CC/C=C(\C)CCC=C(C)C (single isomer, unassigned) [cis-isomer of GGA, 5Z, 9E, 13E geranylgeranyl acetone], the “pharmacological activity and dose-dependent relationship” value [1] was “at best of minimal activity”.
In the case of CC(=O)CC/C=C(\C)CC/C=C(\C)CC/C=C(\C)CCC=C(C)C [CNS-102], the “HSP70 Fold Induction vs. Vehicle Control” value ([2]; Intestine, 8 h) was 1.63 fold, the “HSP70 Fold Induction vs. Vehicle Control” value ([2]; Intestine, 17 h) was 1.26 fold and the “HSP70 Fold Induction vs. Vehicle Control” value ([2]; Intestine, 24 h) was 0.64 fold. The “HSP70 Fold Induction vs. Vehicle Control” value ([2]; PBMC, 8 h) was 1.67 fold, the “HSP70 Fold Induction vs. Vehicle Control” value ([2]; PBMC, 17 h) was 1.05 fold and the “HSP70 Fold Induction vs. Vehicle Control” value ([2]; PBMC, 24 h) was 1.09 fold. For the same compound, the “HSP70 Fold Induction vs. Vehicle Control” value ([2]; Stomach, 8 h) was 1.07 fold, the “HSP70 Fold Induction vs. Vehicle Control” value ([2]; Stomach, 17 h) was 1.30 fold and the “HSP70 Fold Induction vs. Vehicle Control” value ([2]; Stomach, 24 h) was 0.96 fold. For the same compound, the “HSP70 Fold Induction vs. Vehicle Control” value ([2]; heart, 17 h) was 1.89 fold, the “HSP70 Fold Induction vs. Vehicle Control” value ([2]; heart, 24 h) was 0.60 fold and the “HSP70 Fold Induction vs. Vehicle Control” value ([2]; kidney, 8 h) was 1.11 fold. For the same compound, the “HSP70 Fold Induction vs. Vehicle Control” value ([2]; kidney, 17 h) was 1.08 fold, the “HSP70 Fold Induction vs. Vehicle Control” value ([2]; kidney, 24 h) was 0.92 fold and the “HSP70 Fold Induction vs. Vehicle Control” value ([2]; liver, 8 h) was 1.24 fold. For the same compound, the “HSP70 Fold Induction vs. Vehicle Control” value ([2]; liver, 17 h) was 1.00 fold, the “HSP70 Fold Induction vs. Vehicle Control” value ([2]; liver, 24 h) was 0.89 fold and the “HSP70 Fold Induction vs. Vehicle Control” value ([2]; plasma, 8 h) was 0.88 fold. For the same compound, the “HSP70 Fold Induction vs. Vehicle Control” value ([2]; plasma, 17 h) was 1.09 fold, the “HSP70 Fold Induction vs. Vehicle Control” value ([2]; plasma, 24 h) was 1.05 fold and the “HSP70 Fold Induction vs. Vehicle Control” value ([2]; spleen, 8 h) was 0.64 fold. For the same compound, the “HSP70 Fold Induction vs. Vehicle Control” value ([2]; spleen, 17 h) was 1.09 fold, the “HSP70 Fold Induction vs. Vehicle Control” value ([2]; spleen, 24 h) was 1.04 fold and the “HSP70 Fold Induction vs. Vehicle Control” value ([2]; testicle, 8 h) was 1.10 fold. For the same compound, the “HSP70 Fold Induction vs. Vehicle Control” value ([2]; testicle, 17 h) was 1.03 fold, the “HSP70 Fold Induction vs. Vehicle Control” value ([2]; testicle, 24 h) was 0.94 fold and the “HSP70 expression (western blot), treatment average” value (“HSP70 expression (western blot)” for short) ([3]; cortex, 24 hours after 12 mg/kg oral) was −0.016. The “HSP70 expression (western blot)” value ([3]; cortex, 48 hours after 12 mg/kg oral) was −0.45, the “HSP70 expression, delta CNS-102 vs PBS” value ([3]; cortex, 48 hours, 12 mg/kg oral, p-value 0.15) was 0.11 and the “HSP70 expression (western blot)” value ([3]; cortex, 72 hours after 12 mg/kg oral) was 0.14. For the same compound, the “HSP70 expression, delta CNS-102 vs PBS” value ([3]; cortex, 72 hours, 12 mg/kg oral, p-value 0.13) was 0.13, the “HSP70 expression (western blot)” value ([3]; cortex, 96 hours after 12 mg/kg oral) was 0.04 and the “HSP70 expression, delta CNS-102 vs PBS” value ([3]; cortex, 96 hours, 12 mg/kg oral, p-value 0.09) was 0.19. The “levels of HSP70 in the cortex after 24 h” value ([3]; cortex, time points after 24 h, 12 mg/kg oral) was “No significant levels”, the “time of peak HSP70 expression in the hippocampus” value ([3]; hippocampus, 12 mg/kg oral) was greater than 48 h and the “HSP70 expression (western blot)” value ([3]; hippocampus, 24 hours after 12 mg/kg oral) was −0.159. The “HSP70 expression, delta CNS-102 vs PBS” value ([3]; hippocampus, 24 hours, 12 mg/kg oral, p-value 0.16) was −0.088, the “HSP70 expression (western blot)” value ([3]; hippocampus, 48 hours after 12 mg/kg oral) was 0.02 and the “HSP70 expression, delta CNS-102 vs PBS” value ([3]; hippocampus, 48 hours, 12 mg/kg oral, p-value 0.14) was 0.2. The “HSP70 expression (western blot)” value ([3]; hippocampus, 72 hours after 12 mg/kg oral) was −0.06, the “HSP70 expression (western blot)” value ([3]; hippocampus, 96 hours after 12 mg/kg oral) was −0.32 and the “HSP70 expression, delta CNS-102 vs PBS” value ([3]; hippocampus, 96 hours, 12 mg/kg oral, p-value 0.07) was 0.17.
With CC(=O)CC/C=C(\C)CC/C=C(\C)CC/C=C(\C)CCC=C(C)C [GGA, Geranylgeranyl acetone] the “chaperone induction in liver (gene expression and immunoblot): HSP70, HSP27, BIP” value ([4]; after 90% hepatectomy) was “induce an endoplasmic reticulum chaperone, BIP”, the “release of aminotransferases (ALT, AST)” value [4, 13] was “significantly suppresses” and the survival [4, 13] was “improves survival”. The “efficacy in inflammatory bowel disease (treating the condition and maintaining remission)” value [5] was “demonstrate efficacy”, the “efficacy in inflammatory bowel disease (treating the condition and maintaining remission)” value [6] was “demonstrate efficacy” and the “expression of HSP70 in the colon” value ([7]; mice given DSS) was “enhances”. The “clinical severity of colitis” value ([7]; oral, 3% DSS for 7 days) was “significantly reduces”, the “level of IFN-gamma in the colon” value ([7]; oral, 3% DSS for 7 days) was “suppresses” and the “level of MPO activity in the colon” value ([7]; oral, 3% DSS for 7 days) was “suppresses”. The “level of TNF-alpha in the colon” value ([7]; oral, 3% DSS for 7 days) was “suppresses”, the “Lactate dehydrogenase concentration in receptor blood” value ([8]; vs control group) was “decreased” and the atriphosphate concentration ([8]; vs control group) was “higher”. The “creatine kinase muscle band concentration in receptor blood” value ([8]; vs control group) was “decreased”, the malondialdehyde concentration ([8]; vs control group) was “lower” and the “HSP70 expression in donor hearts” value ([8]; oral dose to donor 24 h before transplantation) was “increase”. For the same compound, the “HSP70 levels (ELISA)” value [9] was “rapidly elevates HSP70 levels”, the “protection against NH2Cl-induced injury (cell viability)” value [9] was “protects against NH2Cl-induced injury” and the cell viability [10] was “increased cell viability”. The “ischemia induced apoptosis (TUNEL)” value [11] was “reduce ischemia induced apoptosis”, the “ischemia-induced reduction of cell proliferation” value [11] was “rescue ischemia-induced reduction of cell proliferation” and the “decrease in SOD levels” value [12] was “significantly inhibits”. For the same compound, the “increase in MDA levels” value [12] was “significantly inhibits”, the infarct size [12] was “significantly reduces” and the “level of CK” value [12] was “significantly reduces”. The “level of LDH” value [12] was “significantly reduces”.
